Results taken from patent EP0762895B1, “SYNTHETIC VACCINE FOR PROTECTION AGAINST HUMAN IMMUNODEFICIENCY VIRUS INFECTION” (DUKE UNIVERSITY, priority 1994, dated 1995).
Where no end group is shown, it is not given here.

Tested on: Normal Human Peripheral Blood Lymphocytes
Conditions: not given
For “CTRPNNNTRKSIRIQRGPG [SP-10, CTRPNNNTRKSIRIQRGPG]”, the “Inhibition of normal T cell response to tetanus toxoid” value was “no inhibition of normal T cell response to tetanus toxoid was observed”.

Tested on: T cells
Conditions: T helper epitopes of Clerici et al 1989; share of population studied; cited from earlier work
For HEDIISLWNQSLK [T2], the “% Responding” value is given as 54%.
In the case of KQIINMWQEVGKAMYA [T1], the “% Responding” value is given as 77%.
In the case of “TH4: T helper epitope, amino acids 834-848 of gp41 (QGACRAIRHIPRRIR; Transmembrane protein gp41; UniProt P04578 834-848, looked up, fragment)”, the “% Responding” value is given as 75%.

Same assay, conditions: T helper epitopes of Schrier et al 1989; share of population studied; cited from earlier work
For “gp41-1: T helper epitope, amino acids 603-614 of gp41 (ICTTAVPWNASW; Transmembrane protein gp41; UniProt P04578 603-614, looked up, fragment)”, the “% Responding” value is listed as 41%.
For “gp41-2: T helper epitope, amino acids 609-620 of gp41 (PWNASWSNKSLE; Transmembrane protein gp41; UniProt P04578 609-620, looked up, fragment)”, the “% Responding” value is listed as 42%.
In the case of “gp41-3: T helper epitope, amino acids 655-667 of gp41 (KNEQELLELDKWA; Transmembrane protein gp41; UniProt P04578 655-667, looked up, fragment)”, the “% Responding” value is given as 38%.
For “gp41-5: T helper epitope, amino acids 737-749 of gp41 (GGERDRDRSIRLV; Transmembrane protein gp41; UniProt P04578 737-749, looked up, fragment)”, the “% Responding” value is listed as 21%.
For “gp41-7: T helper epitope, amino acids 584-609 of gp41 (ERYLKDQQLLGIWGCSGKLICTTAVP; Transmembrane protein gp41; UniProt P04578 584-609, looked up, fragment)”, the “% Responding” value is given as 24%.
For “gp120-2: T helper epitope, amino acids 115-126 of gp120 (SLKPCVKLTPLC; Envelope glycoprotein gp120; UniProt P04578 115-126, looked up, fragment)”, the “% Responding” value is given as 38%.
In the case of “gp120-5: T helper epitope, amino acids 368-377 of gp120 (DPEIVTHSFN; Envelope glycoprotein gp120; UniProt P04578 368-377, looked up, fragment)”, the “% Responding” value is listed as 21%.
For “pol-1: T helper epitope, amino acids 899-913 of pol”, the “% Responding” value is given as 28%.
In the case of “pol-2: T helper epitope, amino acids 923-937 of pol”, the “% Responding” value is listed as 38%.
For “pol-3: T helper epitope, amino acids 942-954 of pol”, the “% Responding” value is listed as 48%.
In the case of “pol-4: T helper epitope, amino acids 720-730 of pol (PSINNETPGIR; UniProt P04585 720-730, looked up, fragment)”, the “% Responding” value is given as 35%.
